Measured values published in PMC7689835 (Journal of Clinical Pharmacology, 2020).
Each block holds one compound with its values, some of them ahead of it.

What was measured:
FLT3 kinase = details: read-out: dissociation constant (Kd); cited from earlier work
[1] = Population PK model of AC886; format: in vivo, human
[2] = Observed plasma PK in clinical studies; format: in vivo, human; details: for geometric mean ratio of AC886 AUC0-24,ss to quizartinib AUC0-24,ss: noncompartmental analysis
[3] = cited from earlier work
[4] = cited from earlier work; remark: listed apart in the source
[5] = Population PK model of quizartinib; format: in vivo, human
[6] = before relative F1 for patients was incorporated into the model
[7] = interoccasion variability, occasion 1
[8] = interoccasion variability, occasion 2
[9] = interoccasion variability, occasion 3
[10] = interoccasion variability, occasion 4

- FMET (fraction of quizartinib converted to AC886) ([1]; FIXED, based on AUC ratio in phase 2 study): 0.500
- effect of mild or moderate hepatic impairment on PK ([1]; based on baseline liver function values): no effect
- Magnitude of interindividual variability in Vcm ([1]; final estimate): 117% CV
- increase in CLm with concomitant strong CYP3A inhibitor use ([1]; final model): 10.6%
- increase in Vcm with concomitant strong CYP3A inhibitor use ([1]; final model): 192%
- IIV in CLm in healthy volunteers ([1]; healthy volunteers): 45.9% CV
- IIV in CLm in patients ([1]; patients with AML): 64.1% CV
- CLm (apparent clearance for metabolite) ([1]; population mean): 4.09 L/h
- CLm (fractional change in CLm for race black) ([1]; population mean): 0.586
- CLm (fractional change in CLm for strong CYP3A inhibitors) ([1]; population mean): 0.106
- CLm (power of BSA in CLm) ([1]; population mean): 1.60
- Vcm (fractional change in Vcm for strong CYP3A inhibitors) ([1]; population mean): 1.92
- median accumulation ratio ([2]; patients from the QuANTUM-R study, multiple daily doses): 8.4
- geometric mean ratio of AC886 AUC0-24,ss to quizartinib AUC0-24,ss ([2]; study 2689-CL-2004, 30-mg cohort): 0.544
- geometric mean ratio of AC886 AUC0-24,ss to quizartinib AUC0-24,ss ([2]; study 2689-CL-2004, 60-mg cohort): 0.485
Structure (SMILES): CC(C)(CO)c1cc(NC(=O)Nc2ccc(-c3cn4c(n3)sc3cc(OCCN5CCOCC5)ccc34)cc2)no1 [AC886]
- Kd (FLT3 kinase): 1.1 nM

Structure (SMILES): CCc1nc(C(N)=O)c(Nc2ccc(N3CCC(N4CCN(C)CC4)CC3)c(OC)c2)nc1NC1CCOCC1 [gilteritinib]
- increase in exposure with strong CYP3A inhibitor itraconazole [3]: approximately 2.2 fold
- decrease in exposure with strong CYP3A4 inducer rifampin ([3]; versus gilteritinib alone): 30%

Structure (SMILES): CO[C@@H]1[C@H](N(C)C(=O)c2ccccc2)C[C@H]2O[C@]1(C)n1c3ccccc3c3c4c(c5c6ccccc6n2c5c31)C(=O)NC4 [midostaurin]
- decrease in exposure with CYP3A4 induction by rifampicin [3]: > 10 fold
- increase in exposure with CYP3A inhibition by ketoconazole [3]: > 10 fold

- increase in CL in patients with AML (initial characterization) [5, 6]: 75%
- increase in Vc in patients with AML (initial characterization) [5, 6]: 36%
- increase in Vp1 in patients with AML (initial characterization) [5, 6]: 102%
- effect of eGFR on quizartinib CL ([5]; covariate test and sensitivity analysis): No significant effect
- Magnitude of interindividual variability in ALAG1 ([5]; final estimate): 62.0% CV
- Magnitude of interindividual variability in CL ([5]; final estimate): 55.1% CV
- Magnitude of interindividual variability in D1 ([5]; final estimate): 69.3% CV
- Magnitude of interindividual variability in F1 ([5]; final estimate): 34.8% CV
- Magnitude of interindividual variability in Ka ([5]; final estimate): 38.5% CV
- Magnitude of interindividual variability in Q1 ([5]; final estimate): 24.8% CV
- Magnitude of interindividual variability in Vc ([5]; final estimate): 27.6% CV
- Magnitude of interindividual variability in Vp1 ([5]; final estimate): 39.7% CV
- decrease in CL with strong CYP3A inhibitor use ([5]; final model): 44.1%
- increase in CL for patients with AML versus healthy volunteers ([5]; final model): 8.2%
- increase in F1 with strong CYP3A inhibitor use ([5]; final model): 13.6%
- reduction in bioavailability for patients with AML versus healthy volunteers ([5]; final model): 40.1%
- Vd ([5]; human, plasma, oral): 194 L
- IOV in CL on occasion 1 [5, 7]: 40.9% CV
- IOV in F1 on occasion 1 [5, 7]: 22.6% CV
- IOV in Vc on occasion 1 [5, 7]: 20.3% CV
- IOV in CL on occasion 2 [5, 8]: 40.9% CV
- IOV in Vc on occasion 2 [5, 8]: 20.3% CV
- IOV in CL on occasion 3 [5, 9]: 40.9% CV
- IOV in F1 on occasion 3 [5, 9]: 22.6% CV
- IOV in Vc on occasion 3 [5, 9]: 20.3% CV
- IOV in CL on occasion 4 [5, 10]: 40.9% CV
- IOV in Vc on occasion 4 [5, 10]: 20.3% CV
- ALAG1 (absorption lag time) ([5]; population mean): 0.205 h
- CL (apparent clearance for parent) ([5]; population mean): 2.77 L/h
- D1 (duration of zero-order input to depot compartment) ([5]; population mean): 0.708 h
- F1 (fractional change in F1 for strong CYP3A inhibitors) ([5]; population mean): 0.136
- F1 (fractional change in study 019 F1 for fed) ([5]; population mean): 0.0509
- Q1 (exponent for BSA on Q1) ([5]; population mean): 0.970
- Vc (exponent of [ALB/4.1] for Vc) ([5]; population mean): −0.725
- Vc (exponent of [BSA/1.9] for Vc) ([5]; population mean): 1.46
- Vp1 (exponent for BSA on Vp1) ([5]; population mean): 1.50
- Vp1 (exponent for age on Vp1) ([5]; population mean): 0.453
- Ka (first-order absorption constant for healthy participants) ([5]; population mean, healthy participants): 0.874 h⁻¹
- Ka (first-order absorption constant for patients) ([5]; population mean, patients with AML): 1.68 h⁻¹
- Ka (fractional change in Ka for fed status [019 only]) ([5]; population mean, study AC220-019, fed vs fasted): −0.512
- decrease in ka under fed versus fasted conditions ([5]; study AC220-019): 51.2%
- increase in F1 under fed versus fasted conditions ([5]; study AC220-019): 5.1%
- Tmax ([2]; human, plasma, oral, observed Tmax, patients with AML): ~2 h
Structure (SMILES): CC(C)(C)c1cc(NC(=O)Nc2ccc(-c3cn4c(n3)sc3cc(OCCN5CCOCC5)ccc34)cc2)no1 [quizartinib]
- increase in quizartinib exposure by strong CYP3A inhibitors ([4]; drug-drug interaction study with ketoconazole or fluconazole): approximately 2 fold
- effect of lansoprazole on bioavailability ([4]; phase 1 study): did not result in a meaningful change
